Test results as given in patent US11807835B2, “Detergent compositions containing a stabilized enzyme by phosphonates” (ECOLAB USA INC., priority 2016, dated 2023).

Legend:
[1] = test system: lipase; assay: Lipase activity retention in detergent use solution (4000 ppm, 5 GPG water; p-nitrophenyl valerate, TRIS buffer pH 8.0); type: biochemical; conditions: base formula
Method: The enzyme […] collected up to 4 hours, after a use solution was generated from the detergent composition. During the tests, the samples at different time points were collected and immediately frozen in an acetone/dry ice bath and stored in −80° C. before the activity of the enzyme was evaluated. For the use of such an assay, t=0 min was the reference point for 100% enzyme activity.
(§1) Assays of enzyme activity in formulations (% retention) were conducted to simulate a presoak condition in a beaker using the chemistry, temperature, and pH conditions relevant to manual warewash or presoak applications. Enzyme activity is an indicator of the stability of the enzyme in the detergent, specifically in an aqueous use solution within a sump (which is under conditions of high pH, temperature and dilution).
(§2) Enzyme activity under presoak or manual warewash conditions was traced quantitatively using a standard protease assay. Samples were prepared under bench top conditions, whereby the use solution from a detergent composition or detergent was obtained and maintained at a presoak or manual warewash temperature in a stirring water bath. After the time course for assessing enzyme stability is initiated, aliquots were taken at various time points and flash-frozen. A time=0 sample was prepared for each series by dissolving the detergent formulation at room temperature, mixing thoroughly, and flash freezing. Samples were thawed and diluted as necessary in an assay buffer usually for use in the protease assay. A glycine buffer at pH 9.0 is used here. The assay monitored the direct reaction of the protease on a small, commercially available peptidyl substrate, with liberation of the product providing correlation to the active enzyme content. The product was detected using a plate reader with an appreciable dynamic range (upper absorbance limit of the instrument >3.5). Enzyme activity levels were assessed relative to a calibration curve with average values for replicate tests used to map protease stability under presoak or manual warewash use conditions. Enzyme retention at each time point was calculated as the % enzyme activity relative to the time=0 sample.
The analysis by lipase and amylase assay was conducted similarly, except with a different substrate and buffers. For lipase activity, the substrate is p-nitrophenyl valerate, and for amylase, the substrate is an ethylidene substrate (EPS). The buffer used in lipase assay is TRIS (Tris(hydroxymethyl)aminomethane) buffer at pH 8.0, and in amylase assay HEPES (4-(2-hydroxyethyl)-1-piperazineethanesulfonic acid) buffer at pH 8.0.

[2] = test system: protease; assay: Protease activity retention in detergent use solution (4000 ppm, 5 GPG water; peptidyl substrate, glycine buffer pH 9.0); type: biochemical; conditions: base formula; for Relative Protease Enzyme Activity: use solution at 120° F.
Method: The enzyme activities in the detergents with different phosphonate levels were tested at 4000 ppm in 5 grains per gallon (GPG) water at 120° F. with various time points collected up to 4 hours, after a use solution was generated from the detergent composition. During the tests, the samples at different time points were collected and immediately frozen in an acetone/dry ice bath and stored in −80° C. before the activity of the enzyme was evaluated. For the use of such an assay, t=0 min was the reference point for 100% enzyme activity.
as §1
The analysis by protease assay was conducted as follows. For the assays, a detergent composition was used to generate an aqueous use solution evaluated herein.
as §2

Compound: NCP(=O)(O)O [AMPA, Aminomethyl phosphonic acid]
- Relative Lipase Enzyme Activity ([1]; phosphonate 0.6 wt-%, use solution at 120º F., time 0 min): 100.00%
- Relative Lipase Enzyme Activity ([1]; phosphonate 0.6 wt-%, use solution at 120º F., time 5 min): 80.17%
- Relative Lipase Enzyme Activity ([1]; phosphonate 0.6 wt-%, use solution at 120º F., time 10 min): 64.48%
- Relative Lipase Enzyme Activity ([1]; phosphonate 0.6 wt-%, use solution at 120º F., time 20 min): 49.45%
- Relative Lipase Enzyme Activity ([1]; phosphonate 0.6 wt-%, use solution at 120º F., time 40 min): 37.77%
- Relative Lipase Enzyme Activity ([1]; phosphonate 0.6 wt-%, use solution at 120º F., time 60 min): 26.82%
- Relative Lipase Enzyme Activity ([1]; phosphonate 0.6 wt-%, use solution at 120º F., time 90 min): 19.59%
- Relative Lipase Enzyme Activity ([1]; phosphonate 0.6 wt-%, use solution at 120º F., time 120 min): 15.84%
- Relative Lipase Enzyme Activity ([1]; phosphonate 0.6 wt-%, use solution at 120º F., time 150 min): 15.01%
- Relative Lipase Enzyme Activity ([1]; phosphonate 0.6 wt-%, use solution at 120º F., time 180 min): 13.23%
- Relative Lipase Enzyme Activity ([1]; phosphonate 0.6 wt-%, use solution at 120º F., time 210 min): 12.05%
- Relative Lipase Enzyme Activity ([1]; phosphonate 0.6 wt-%, use solution at 120º F., time 240 min): 11.16%
- Relative Lipase Enzyme Activity ([1]; phosphonate at 0.1% elemental phosphorus, at 120º F. or at room temperature (as titled), time 0 min): 100.00%
- Relative Lipase Enzyme Activity ([1]; phosphonate at 0.1% elemental phosphorus, at 120º F. or at room temperature (as titled), time 5 min): 79.03%
- Relative Lipase Enzyme Activity ([1]; phosphonate at 0.1% elemental phosphorus, at 120º F. or at room temperature (as titled), time 10 min): 77.51%
- Relative Lipase Enzyme Activity ([1]; phosphonate at 0.1% elemental phosphorus, at 120º F. or at room temperature (as titled), time 20 min): 62.55%
- Relative Lipase Enzyme Activity ([1]; phosphonate at 0.1% elemental phosphorus, at 120º F. or at room temperature (as titled), time 40 min): 53.26%
- Relative Lipase Enzyme Activity ([1]; phosphonate at 0.1% elemental phosphorus, at 120º F. or at room temperature (as titled), time 60 min): 44.19%
- Relative Lipase Enzyme Activity ([1]; phosphonate at 0.1% elemental phosphorus, at 120º F. or at room temperature (as titled), time 90 min): 33.99%
- Relative Lipase Enzyme Activity ([1]; phosphonate at 0.1% elemental phosphorus, at 120º F. or at room temperature (as titled), time 120 min): 28.67%
- Relative Lipase Enzyme Activity ([1]; phosphonate at 0.1% elemental phosphorus, at 120º F. or at room temperature (as titled), time 150 min): 23.85%
- Relative Lipase Enzyme Activity ([1]; phosphonate at 0.1% elemental phosphorus, at 120º F. or at room temperature (as titled), time 180 min): 16.98%
- Relative Lipase Enzyme Activity ([1]; phosphonate at 0.1% elemental phosphorus, at 120º F. or at room temperature (as titled), time 210 min): 17.74%
- Relative Lipase Enzyme Activity ([1]; phosphonate at 0.1% elemental phosphorus, at 120º F. or at room temperature (as titled), time 240 min): 16.10%
- protease stability ([2]; compared with ATMP, DGAP, PAPEMP, MEAP): improves protease stability, but to a lesser extent
- Relative Protease Enzyme Activity ([2]; phosphonate 0.3 wt-%, lower half of Table 4A, time 5): 86.30%
- Relative Protease Enzyme Activity ([2]; phosphonate 0.3 wt-%, lower half of Table 4A, time 20): 63.30%
- Relative Protease Enzyme Activity ([2]; phosphonate 0.3 wt-%, lower half of Table 4A, time 90): 37.90%
- Relative Protease Enzyme Activity ([2]; phosphonate 0.3 wt-%, lower half of Table 4A, time 120): 31.17%
- Relative Protease Enzyme Activity ([2]; phosphonate 0.3 wt-%, lower half of Table 4A, time 150, unit not given): 28.70%
- Relative Protease Enzyme Activity ([2]; phosphonate 0.3 wt-%, lower half of Table 4A, time 210): 22.72%
- Relative Protease Enzyme Activity ([2]; phosphonate 0.3 wt-%, lower half of Table 4A, time '0'): 100.00%
- Relative Protease Enzyme Activity ([2]; phosphonate 0.3 wt-%, lower half of Table 4A, time '40'): 51.37%
- Relative Protease Enzyme Activity ([2]; phosphonate 0.3 wt-%, lower half of Table 4A, time 'Blank'): 85.83%
- Relative Protease Enzyme Activity ([2]; phosphonate 0.3 wt-%, lower half of Table 4A, time row printed '10'): 78.58%
- Relative Protease Enzyme Activity ([2]; phosphonate 0.3 wt-%, lower half of Table 4A, time row printed '60'): 44.31%
- Relative Protease Enzyme Activity ([2]; phosphonate 0.3 wt-%, lower half of Table 4A, time row printed '180'): 25.64%
- Relative Protease Enzyme Activity ([2]; phosphonate 0.6 wt-%, time 0 min): 100.00%
- Relative Protease Enzyme Activity ([2]; phosphonate 0.6 wt-%, time 5 min): 109.27%
- Relative Protease Enzyme Activity ([2]; phosphonate 0.6 wt-%, time 10 min): 94.52%
- Relative Protease Enzyme Activity ([2]; phosphonate 0.6 wt-%, time 20 min): 84.97%
- Relative Protease Enzyme Activity ([2]; phosphonate 0.6 wt-%, time 40 min): 77.92%
- Relative Protease Enzyme Activity ([2]; phosphonate 0.6 wt-%, time 60 min): 75.86%
- Relative Protease Enzyme Activity ([2]; phosphonate 0.6 wt-%, time 90 min): 62.50%
- Relative Protease Enzyme Activity ([2]; phosphonate 0.6 wt-%, time 120 min): 54.43%
- Relative Protease Enzyme Activity ([2]; phosphonate 0.6 wt-%, time 150 min): 51.19%
- Relative Protease Enzyme Activity ([2]; phosphonate 0.6 wt-%, time 180 min): 47.47%
- Relative Protease Enzyme Activity ([2]; phosphonate 0.6 wt-%, time 210 min): 43.42%
- Relative Protease Enzyme Activity ([2]; phosphonate 0.6 wt-%, time 240 min): 40.00%
- Relative Protease Enzyme Activity ([2]; phosphonate at 0.1% elemental phosphorus, time 0 min): 107.11%
- Relative Protease Enzyme Activity ([2]; phosphonate at 0.1% elemental phosphorus, time 5 min): 100.00%
- Relative Protease Enzyme Activity ([2]; phosphonate at 0.1% elemental phosphorus, time 10 min): 99.75%
- Relative Protease Enzyme Activity ([2]; phosphonate at 0.1% elemental phosphorus, time 20 min): 84.62%
- Relative Protease Enzyme Activity ([2]; phosphonate at 0.1% elemental phosphorus, time 40 min): 70.58%
- Relative Protease Enzyme Activity ([2]; phosphonate at 0.1% elemental phosphorus, time 60 min): 62.19%
- Relative Protease Enzyme Activity ([2]; phosphonate at 0.1% elemental phosphorus, time 90 min): 49.17%
- Relative Protease Enzyme Activity ([2]; phosphonate at 0.1% elemental phosphorus, time 120 min): 43.34%
- Relative Protease Enzyme Activity ([2]; phosphonate at 0.1% elemental phosphorus, time 150 min): 38.26%
- Relative Protease Enzyme Activity ([2]; phosphonate at 0.1% elemental phosphorus, time 180 min): 34.55%
- Relative Protease Enzyme Activity ([2]; phosphonate at 0.1% elemental phosphorus, time 210 min): 32.27%
- Relative Protease Enzyme Activity ([2]; phosphonate at 0.1% elemental phosphorus, time 240 min): 28.25%
